Assay results published in PMC8286840, “Identifying SARS-CoV-2 antiviral compounds by screening for small molecule inhibitors of Nsp3 papain-like protease” (Biochemical Journal, 2021).
Structures can show the parent of a compound that is named as a salt. Where two headings read alike, the source gives them in different places.

What was measured:
[1] = biological target: T1, SARS-CoV-2 PLpro (nsp3 1564–1878) (Severe acute respiratory syndrome coronavirus 2, UniProt P0DTD1); test: biochemical; set-up: FRET-quenched peptide (Pro3) cleavage by PLpro, 10 min pre-incubation, slope over 20 min, normalised to no-compound control; details: low concentration screen, read-out: % of control remaining
[2] = biological target: T1, SARS-CoV-2 PLpro (nsp3 1564–1878); test: biochemical; set-up: FRET-quenched peptide (Pro3) cleavage by PLpro, 10 min pre-incubation, slope over 20 min, normalised to no-compound control; details: high concentration screen, read-out: % of control remaining

O=C(O)C1=C[C@@H](O)[C@@H](O)[C@H](O)C1 [Shikimic acid]
remaining activity at 1.25 µM ([1]; Well no.=3116): 98.2% | remaining activity at 1.25 µM ([1]; Well no.=7209): 104% | remaining activity at 3.75 µM ([2]; Well no.=3116): 98.6% | remaining activity at 3.75 µM ([2]; Well no.=7209): 102%

CC(C)CC(N(C)C)C1(c2ccc(Cl)cc2)CCC1 (stereo not shown) [Sibutramine]
remaining activity at 1.25 µM ([1]; Well no.=2249): 95.2% | remaining activity at 3.75 µM ([2]; Well no.=2249): 98.7%

CN/C(=N\c1ccc(C2=NNC(=O)CC2C)cc1)NC#N (stereo not shown) [Siguazodan]
remaining activity at 1.25 µM ([1]; Well no.=2154): 91.7% | remaining activity at 3.75 µM ([2]; Well no.=2154): 94.5%

CCCc1nn(C)c2c(=O)[nH]c(-c3cc(S(=O)(=O)N4CCN(C)CC4)ccc3OCC)nc12 [Sildenafil Mesylate]
remaining activity at 1.25 µM ([1]; Well no.=8206): 106% | remaining activity at 3.75 µM ([2]; Well no.=8206): 103%

CCCc1nn(C)c2c(=O)[nH]c(-c3cc(S(=O)(=O)N4CCN(C)CC4)ccc3OCC)nc12 [Sildenafil citrate]
remaining activity at 1.25 µM ([1]; Well no.=4821): 94.7% | remaining activity at 3.75 µM ([2]; Well no.=4821): 94.2%

CCCc1nn(C)c2c(=O)[nH]c(-c3cc(S(=O)(=O)N4CCN(C)CC4)ccc3OCC)nc12 [Sildenafil]
remaining activity at 1.25 µM ([1]; Well no.=1836): 99.2% | remaining activity at 3.75 µM ([2]; Well no.=1836): 96.8%

C[C@H](Cc1cc2c(c(C(N)=O)c1)N(CCCO)CC2)NCCOc1ccccc1OCC(F)(F)F [Silodosin]
remaining activity at 1.25 µM ([1]; Well no.=6759): 101% | remaining activity at 3.75 µM ([2]; Well no.=6759): 102%

COC(=O)[C@H]1[C@@H](O)[C@@]2(O)c3c(OC)cc(O[C@@H]4O[C@@H]([C@H](O)CO)CO[C@H]4OC)cc3O[C@@]2(c2ccc(OC)cc2)[C@@H]1c1ccccc1 [Silvestrol]
remaining activity at 1.25 µM ([1]; Well no.=7120): 103% | remaining activity at 3.75 µM ([2]; Well no.=7120): 101%

COc1cc([C@H]2Oc3cc([C@H]4Oc5cc(O)cc(O)c5C(=O)[C@@H]4O)ccc3O[C@@H]2CO)ccc1O [Silybine]
remaining activity at 1.25 µM ([1]; Well no.=3753): 101% | remaining activity at 3.75 µM ([2]; Well no.=3753): 104%

CCC(C)(C)C(=O)O[C@H]1C[C@@H](C)C=C2C=C[C@H](C)[C@H](CC[C@@H]3C[C@@H](O)CC(=O)O3)[C@H]21 [Simvastatin]
remaining activity at 1.25 µM ([1]; Well no.=1620): 107% | remaining activity at 3.75 µM ([2]; Well no.=1620): 107%

COC1=C[C@@H]2[C@@H]3Cc4ccc(OC)c(O)c4[C@]2(CCN3C)CC1=O [Sinomenine]
remaining activity at 1.25 µM ([1]; Well no.=3757): 97.3% | remaining activity at 3.75 µM ([2]; Well no.=3757): 98.8%

CCc1cc(/C(C)=N/OCc2ccc(C3CCCCC3)c(C(F)(F)F)c2)ccc1CN1CC(C(=O)O)C1 [Siponimod]
remaining activity at 1.25 µM ([1]; Well no.=6669): 97.7% | remaining activity at 3.75 µM ([2]; Well no.=6669): 93.3%

COc1ncc(-c2nc3c(n2C(C)C)[C@H](c2ccc(Cl)cc2)N(c2cc(Cl)cn(C)c2=O)C3=O)c(OC)n1 [Siremadlin]
remaining activity at 1.25 µM ([1]; Well no.=6788): 97.9% | remaining activity at 3.75 µM ([2]; Well no.=6788): 89.6%

CC(NC(=O)c1ccccc1/N=C/c1c(O)ccc2ccccc12)c1ccccc1 (stereo not shown) [Sirtinol]
remaining activity at 1.25 µM ([1]; Well no.=4783): 103% | remaining activity at 3.75 µM ([2]; Well no.=4783): 99.9%

N[C@@H]1CN(c2c(F)cc3c(=O)c(C(=O)O)cn([C@@H]4C[C@@H]4F)c3c2Cl)CC12CC2 [Sitafloxacin hydrate]
remaining activity at 1.25 µM ([1]; Well no.=4770): 97.9% | remaining activity at 3.75 µM ([2]; Well no.=4770): 93.3%

N[C@@H](CC(=O)N1CCn2c(nnc2C(F)(F)F)C1)Cc1cc(F)c(F)cc1F [Sitagliptin phosphate monohydrate]
remaining activity at 1.25 µM ([1]; Well no.=4644): 105% | remaining activity at 3.75 µM ([2]; Well no.=4644): 102%

Cc1cc2c(cc1CC(=O)c1sccc1S(=O)(=O)Nc1onc(C)c1Cl)OCO2 [Sitaxentan sodium (TBC-11251)]
remaining activity at 1.25 µM ([1]; Well no.=4887): 95.6% | remaining activity at 3.75 µM ([2]; Well no.=4887): 98.3%

Cc1cc2c(cc1CC(=O)c1sccc1S(=O)(=O)Nc1onc(C)c1Cl)OCO2 [Sitaxsentan (sodium)]
remaining activity at 1.25 µM ([1]; Well no.=8533): 105% | remaining activity at 3.75 µM ([2]; Well no.=8533): 106%

COc1ccc2c(OC)c3ccoc3nc2c1OC [Skimmianine]
remaining activity at 1.25 µM ([1]; Well no.=3201): 112% | remaining activity at 3.75 µM ([2]; Well no.=3201): 109%

Nc1ccc(C(=O)O)c(O)c1 [Sodium 4-Aminosalicylate]
remaining activity at 1.25 µM ([1]; Well no.=4974): 101% | remaining activity at 3.75 µM ([2]; Well no.=4974): 95.6%

O=C(O)C(O)Cc1ccc(O)c(O)c1 (stereo not shown) [Sodium Danshensu]
remaining activity at 1.25 µM ([1]; Well no.=4868): 100% | remaining activity at 3.75 µM ([2]; Well no.=4868): 100%

NC(=O)C(=O)O [Sodium Oxamate]
remaining activity at 1.25 µM ([1]; Well no.=944): 97.2% | remaining activity at 3.75 µM ([2]; Well no.=944): 96.9%

O=C(O)Cc1ccccc1 [Sodium Phenylacetate]
remaining activity at 1.25 µM ([1]; Well no.=1884): 94.7% | remaining activity at 3.75 µM ([2]; Well no.=1884): 97.8%

O=C(O)CCCc1ccccc1 [Sodium Phenylbutyrate]
remaining activity at 1.25 µM ([1]; Well no.=1582): 106% | remaining activity at 3.75 µM ([2]; Well no.=1582): 103%

O=S(=O)(O)Oc1ccc(C(c2ccc(OS(=O)(=O)O)cc2)c2ccccn2)cc1 [Sodium Picosulfate]
remaining activity at 1.25 µM ([1]; Well no.=4654): 103% | remaining activity at 3.75 µM ([2]; Well no.=4654): 99.8%

CCCC(=O)O [Sodium butyrate]
remaining activity at 1.25 µM ([1]; Well no.=4674): 94.4% | remaining activity at 3.75 µM ([2]; Well no.=4674): 90%

O=C(O)C(Cl)Cl [Sodium dichloroacetate (DCA)]
remaining activity at 1.25 µM ([1]; Well no.=8490): 96.6% | remaining activity at 3.75 µM ([2]; Well no.=8490): 96.1%

O=C(O)c1ccccc1O [Sodium salicylate]
remaining activity at 1.25 µM ([1]; Well no.=4971): 98.6% | remaining activity at 3.75 µM ([2]; Well no.=4971): 97.2%

CNc1cccc(NC(=O)N[C@@H]2N=C(c3ccccn3)c3ccccc3N(CC(=O)C(C)(C)C)C2=O)c1 [Sograzepide]
remaining activity at 1.25 µM ([1]; Well no.=8322): 94.5% | remaining activity at 3.75 µM ([2]; Well no.=8322): 93%

CC(C)=CCC/C(C)=C/CC/C(C)=C/CC/C(C)=C/CC/C(C)=C/CC/C(C)=C/CC/C(C)=C/CC/C(C)=C/CC/C(C)=C/CO [Solanesol]
remaining activity at 1.25 µM ([1]; Well no.=3759): 96.8% | remaining activity at 3.75 µM ([2]; Well no.=3759): 96.5%

C[C@@H]1CC[C@@]2(NC1)O[C@H]1C[C@H]3[C@@H]4CC=C5C[C@@H](O)CC[C@]5(C)[C@H]4CC[C@]3(C)[C@H]1[C@@H]2C [Solasodine]
remaining activity at 1.25 µM ([1]; Well no.=3467): 97.1% | remaining activity at 3.75 µM ([2]; Well no.=3467): 95.3%

CC[C@H]1OC(=O)[C@@](C)(F)C(=O)[C@H](C)[C@@H](O[C@@H]2O[C@H](C)C[C@H](N(C)C)[C@H]2O)[C@](C)(OC)C[C@@H](C)C(=O)[C@H](C)[C@H]2N(CCCCn3cc(-c4cccc(N)c4)nn3)C(=O)O[C@]12C [Solithromycin]
remaining activity at 1.25 µM ([1]; Well no.=7990): 97.5% | remaining activity at 3.75 µM ([2]; Well no.=7990): 95.7%

C=C1[C@H]2C[C@@]3([C@@H]1O)[C@@H](CC2=O)[C@]12[C@@H]4C[C@H]3[C@H]1N(CC)C[C@]4(C)CC[C@@H]2O [Songorine]
remaining activity at 1.25 µM ([1]; Well no.=3203): 102% | remaining activity at 3.75 µM ([2]; Well no.=3203): 102%

O=C1C=CC[C@@H]2[C@H]3CCCN4CCC[C@@H](CN12)[C@@H]34 [Sophocarpine]
remaining activity at 1.25 µM ([1]; Well no.=4870): 99.5% | remaining activity at 3.75 µM ([2]; Well no.=4870): 101%
